For the test, the target named is T1, human kinase Mps-1 (Homo sapiens, UniProt P33981).
T1 construct: N-terminally GST-tagged human full length recombinant Mps-1 kinase; GST (N); purchased Invitrogen, Karslruhe, Germany PV4071
T1 sequence (P33981 1-857): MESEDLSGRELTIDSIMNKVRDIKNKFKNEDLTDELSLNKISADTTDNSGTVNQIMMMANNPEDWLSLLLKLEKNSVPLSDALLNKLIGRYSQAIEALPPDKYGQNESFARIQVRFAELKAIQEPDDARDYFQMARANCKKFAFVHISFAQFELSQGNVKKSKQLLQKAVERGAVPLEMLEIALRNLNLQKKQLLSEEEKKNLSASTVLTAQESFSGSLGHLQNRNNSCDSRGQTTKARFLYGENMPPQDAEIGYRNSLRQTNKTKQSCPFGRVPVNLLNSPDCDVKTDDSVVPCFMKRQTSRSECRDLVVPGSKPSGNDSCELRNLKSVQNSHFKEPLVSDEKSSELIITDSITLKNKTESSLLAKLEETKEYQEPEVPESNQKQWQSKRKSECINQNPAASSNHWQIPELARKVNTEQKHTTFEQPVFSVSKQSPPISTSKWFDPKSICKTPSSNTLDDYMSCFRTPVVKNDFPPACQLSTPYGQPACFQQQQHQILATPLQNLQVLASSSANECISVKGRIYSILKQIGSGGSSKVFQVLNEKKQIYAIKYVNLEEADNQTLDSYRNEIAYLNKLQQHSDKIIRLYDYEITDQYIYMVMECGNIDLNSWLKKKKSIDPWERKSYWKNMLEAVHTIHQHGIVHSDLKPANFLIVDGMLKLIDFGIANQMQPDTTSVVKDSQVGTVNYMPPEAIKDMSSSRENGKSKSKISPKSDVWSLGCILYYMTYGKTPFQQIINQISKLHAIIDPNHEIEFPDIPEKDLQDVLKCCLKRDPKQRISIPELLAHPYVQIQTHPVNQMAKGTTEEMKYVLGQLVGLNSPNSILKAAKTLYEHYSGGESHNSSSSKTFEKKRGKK
Nature of the test: Mps-1 kinase assay (TR-FRET). Type of test: biochemical. The following applies: GST-tagged human full length recombinant Mps-1; 10 μM ATP; 1 μM peptide substrate; 60 min at 22° C. The essentials: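 N-terminally GST-tagged full-length recombinant human Mps-1, about 1 nM final, phosphorylates a biotinylated peptide. Product detected by TR-FRET from Eu-anti-phospho-Ser/Thr antibody to streptavidin-XLent after 1 h at 22° C.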

`CC(C)CNc1nc(C#N)cn2c(-c3ccc(C(=O)NC4CC4)cc3)cnc12` [Example 5-1, 4-{6-cyano-8-[(2-methylpropyl)amino]imidazo[1,2-a]pyrazin-3-yl}-N-cyclopropyl benzamide]: the IC50 amounted to 55.1 nM.
With `Cc1cc(-c2cnc3c(NCC(C)C)nc(-c4ccncc4)cn23)ccc1C(=O)NC1CC1` [Example 6-1, N-cyclopropyl-2-methyl-4-{8-[(2-methylpropyl)amino]-6-(pyridin-4-yl)imidazo[1,2-a]pyrazin-3-yl}benzamide], the IC50 came to 1.5 nM.
To `Cc1cc(-c2cnc3c(NCCC(F)(F)F)nc(C4=CCOCC4)cn23)ccc1C(=O)NC1CC1` [Example 6-2, N-cyclopropyl-4-{6-(3,6-dihydro-2H-pyran-4-yl)-8-[(3,3,3-trifluoro-propyl)amino]imidazo[1,2-a]pyrazin-3-yl}-2-methylbenzamide] belongs 6.5 nM; to `Cc1cc(-c2cnc3c(NCC4CC4C)nc(-c4ccc(F)cc4)cn23)ccc1C(=O)NC1CC1` (centres unmarked) [Example 6-3, N-cyclopropyl-4-[6-(4-fluorophenyl)-8-{[(2-methylcyclopropyl)methyl]amino}imidazo[1,2-a]pyrazin-3-yl]-2-methylbenzamide], 10.4 nM.
To `Cc1cc(-c2cnc3c(NCC4CCCO4)nc(C4=CCOCC4)cn23)ccc1C(=O)NC1CC1` (centres unmarked) [Example 6-4, N-cyclopropyl-4-{6-(3,6-dihydro-2H-pyran-4-yl)-8-[(tetrahydrofuran-2-ylmethyl)amino]imidazo[1,2-a]pyrazin-3-yl}-2-methylbenzamide] belongs 35.7 nM.
With `Cc1cc(-c2cnc3c(NCC(C)C)nc(C4=CCOCC4)cn23)ccc1C(=O)NC1CC1` [Example 6-5, N-cyclopropyl-4-{6-(3,6-dihydro-2H-pyran-4-y1)-8-[(2-methylpropyl)amino]imidazo[1,2-a]pyrazin-3-yl}-2-methylbenzamide], the IC50 came to 9.3 nM.
With `Cc1cc(-c2cnc3c(NCCC(C)CO)nc(C4=CCOCC4)cn23)ccc1C(=O)NC1CC1` (centres unmarked) [Example 6-6, N-cyclopropyl-4-{6-(3,6-dihydro-2H-pyran-4-yl)-8-[(4-hydroxy-3-methylbutyl)amino]imidazo[1,2-a]pyrazin-3-yl}-2-methylbenzamide], the half-inhibitory concentration (IC50) is 20.6 nM.
Regarding `Cc1cc(-c2cnc3c(NCC4CN(C)CCO4)nc(C4=CCOCC4)cn23)ccc1C(=O)NC1CC1` (centres unmarked) [Example 6-7, N-cyclopropyl-4-[6-(3,6-dihydro-2H-pyran-4-yl)-8-{[(4-methyl-morpholin-2-yl)methyl]amino}imidazo[1,2-a]pyrazin-3-y1]-2-methylbenzamide], the 50% inhibitory concentration (IC50) was determined as 294 nM.
In the case of `Cc1cc(-c2cnc3c(NCC4CCC(C)(O)CC4)nc(C4=CCOCC4)cn23)ccc1C(=O)NC1CC1` (centres unmarked) [Example 6-8, N-cyclopropyl-4-[6-(3,6-dihydro-2H-pyran-4-yl)-8-{[(4-hydroxy-4-methylcyclohexyl)methyl]amino}imidazo[1,2-a]pyrazin-3-yl]-2-methylbenzamide] it was 11.1 nM.
In the case of `Cc1cc(-c2cnc3c(NCC4CCN(C)C4)nc(C4=CCOCC4)cn23)ccc1C(=O)NC1CC1` (centres unmarked) [Example 6-9, N-cyclopropyl-4-[6-(3,6-dihydro-2H-pyran-4-yl)-8-{[(1-methyl-pyrrolidin-3-yl)methyl]amino}imidazo[1,2-a]pyrazin-3-yl]-2-methylbenzamide] it was 77.6 nM.
As for `Cc1cc(-c2cnc3c(NCC4CCOC4)nc(C4=CCOCC4)cn23)ccc1C(=O)NC1CC1` (centres unmarked) [Example 6-11, N-cyclopropyl-4-{6-(3,6-dihydro-2H-pyran-4-yl)-8-[(tetrahydrofuran-3-ylmethyl)amino]imidazo[1,2-a]pyrazin-3-yl}-2-methylbenzamide], the IC50 was 6 nM.
In the case of `Cc1cc(-c2cnc3c(NCCCC(C)O)nc(C4=CCOCC4)cn23)ccc1C(=O)NC1CC1` (centres unmarked) [Example 6-12, N-cyclopropyl-4-{6-(3,6-dihydro-2H-pyran-4-yl)-8-[(4-hydroxypentyl)amino]imidazo[1,2-a]pyrazin-3-yl}-2-methylbenzamide] it was 28 nM; in that of `Cc1cc(-c2cnc3c(NCC4CNC(=O)C4)nc(C4=CCOCC4)cn23)ccc1C(=O)NC1CC1` (centres unmarked) [Example 6-13, N-cyclopropyl-4-[6-(3,6-dihydro-2H-pyran-4-yl)-8-{[(5-oxopyrrolidin-3-yl)methyl]amino}imidazo [1,2-a]pyrazin-3-yl]-2-methylbenzamide], 29.9 nM; in that of `Cc1cc(-c2cnc3c(NCCC4CCN(C)CC4)nc(C4=CCOCC4)cn23)ccc1C(=O)NC1CC1` [Example 6-14, N-cyclopropyl-4-[6-(3,6-dihydro-2H-pyran-4-yl)-8-{[2-(1-methyl-piperidin-4-yl)ethyl]amino}imidazo[1,2-a]pyrazin-3-yl]-2-methylbenzamide], 293 nM.
To `Cc1cc(-c2cnc3c(NCC4CC(=O)N(C)C4)nc(C4=CCOCC4)cn23)ccc1C(=O)NC1CC1` (centres unmarked) [Example 6-15, N-cyclopropyl-4-[6-(3,6-dihydro-2H-pyran-4-yl)-8-{[(1-methyl-5-oxopyrrolidin-3-yl)methyl]amino}imidazo[1,2-a]pyrazin-3-yl]-2-methylbenzamide] belongs 44.8 nM.
In the case of `Cc1cc(-c2cnc3c(NCC4CC4C)nc(C4=CCOCC4)cn23)ccc1C(=O)NC1CC1` (centres unmarked) [Example 6-16, N-cyclopropyl-4-[6-(3,6-dihydro-2H-pyran-4-yl)-8-{[(2-methylcyclo-propyl)methyl]amino}imidazo [1,2-a]pyrazin-3-yl]-2-methylbenzamide] it was 8.6 nM; in that of `Cc1cc(-c2cnc3c(NCC4CC(F)(F)C4)nc(C4=CCOCC4)cn23)ccc1C(=O)NC1CC1` [Example 6-17, N-cyclopropyl-4-[8-{[(3,3-difluoro-cyclobutyl)methyl]amino}-6-(3,6-dihydro-2H-pyran-4-yl)imidazo [1,2-a]pyrazin-3-yl]-2-methylbenzamide], 10.5 nM; in that of `Cc1cc(-c2cnc3c(NCC4CCC(N(C)C)CC4)nc(C4=CCOCC4)cn23)ccc1C(=O)NC1CC1` (centres unmarked) [Example 6-18, N-cyclopropyl-4-[6-(3,6-dihydro-2H-pyran-4-yl)-8-({[4-(dimethylamino)cyclohexyl]methyl}amino)imidazo[1,2-a]pyrazin-3-yl]-2-methylbenzamide], 199 nM.
As to `CCN1CCC(CNc2nc(C3=CCOCC3)cn3c(-c4ccc(C(=O)NC5CC5)c(C)c4)cnc23)C1` (centres unmarked) [Example 6-19, N-cyclopropyl-4-[6-(3,6-dihydro-2H-pyran-4-yl)-8-{[(1-ethyl-pyrrolidin-3-yl)methyl]amino}imidazo[1,2-a]pyrazin-3-yl]-2-methylbenzamide], the concentration for half-maximal inhibition (IC50) turned out to be 338 nM.
`CC(C)CNc1nc(CCC(C)(C)O)cn2c(-c3ccc(C(=O)NC4CC4)cc3)cnc12` [Example 7-1, N-cyclopropyl-4-{6-(3-hydroxy-3-methylbutyl)-8-[(2-methylpropyl)amino]imidazo[1,2-a]pyrazin-3-yl}benzamide]: the IC50 was 6.9 nM.
To `CC(C)CNc1nc(CCCN(C)C)cn2c(-c3ccc(C(=O)NC4CC4)cc3)cnc12` [Example 7-2, N-cyclopropyl-4-{6-[3-(dimethylamino)propyl]-8-[(2-methylpropyl)amino]imidazo[1,2-a]pyrazin-3-yl}benzamide] belongs 42.2 nM; to `CC(C)CNc1nc(CCCO)cn2c(-c3ccc(C(=O)NC4CC4)cc3)cnc12` [Example 7-3, N-cyclopropyl-4-{6-(3-hydroxypropyl)-8-[(2-methylpropyl)amino]imidazo[1,2-a]pyrazin-3-yl}benzamide], 7.2 nM; to `CC(C)CNc1nc(C2CCOCC2)cn2c(-c3ccc(C(=O)NC4CC4)cc3)cnc12` [Example 7-4, N-cyclopropyl-4-{8-[(2-methylpropyl)amino]-6-(tetrahydro-2H-pyran-4-yl)imidazo[1,2-a]pyrazin-3-yl}benzamide], 1.5 nM.
To `CNC(=O)CCCCc1cn2c(-c3ccc(C(=O)NC4CC4)cc3)cnc2c(NCC(C)C)n1` [Example 7-5, N-cyclopropyl-4-{6-[5-(methylamino)-5-oxopentyl]-8-[(2-methylpropyl)amino]imidazo[1,2-a]pyrazin-3-yl} benzamide] belongs 6.5 nM; to `CC(C)CNc1nc(C2CCN(C)CC2)cn2c(-c3ccc(C(=O)NC4CC4)cc3)cnc12` [Example 7-6, N-cyclopropyl-4-{6-(1-methylpiperidin-4-yl)-8-[(2-methylpropyl)amino]imidazo[1,2-a]pyrazin-3-yl}benzamide], 3.9 nM.
With `CC(C)CNc1nc(C(=O)Nc2ccccc2)cn2c(-c3ccc(C(=O)NC4CC4)cc3)cnc12` [Example 8-1, 3-[4-(cyclopropylcarbamoyl)phenyl]-8-[(2-methylpropyl)amino]-N-phenylimidazo[1,2-a]pyrazine-6-carboxamide], the half-inhibitory concentration (IC50) worked out at 67.2 nM.

The values above are taken from patent publication US20140135319A1, “6-SUBSTITUTED IMIDAZOPYRAZINES FOR USE AS MPS-1 AND TKK INHIBITORS IN THE TREATMENT OF HYPERPROLIFERATIVE DISORDERS” (BAYER INTELLECTUAL PROPERTY GMBH, priority 2010, published 2014).
